Reference: patent US10112954B2, “Bicyclic heteroaryl derivatives having inhibitory activity for protein kinase” (HANMI PHARM. CO., LTD., priority 2010, dated 2018)
Where two headings read alike, the source gives them in different places. Blank lines part the entries; values can stand above or below the compound they belong to.

What was measured:
Assay type in all cases: biochemical
PDGFRα = molecular target: T1, PDGFRα (Homo sapiens, UniProt P16234); experiment: Inhibition of PDGFRα kinase; details: Table 3
T1 construct: purchased Upstate Company
T1 sequence (P16234 24-1089, species assumed): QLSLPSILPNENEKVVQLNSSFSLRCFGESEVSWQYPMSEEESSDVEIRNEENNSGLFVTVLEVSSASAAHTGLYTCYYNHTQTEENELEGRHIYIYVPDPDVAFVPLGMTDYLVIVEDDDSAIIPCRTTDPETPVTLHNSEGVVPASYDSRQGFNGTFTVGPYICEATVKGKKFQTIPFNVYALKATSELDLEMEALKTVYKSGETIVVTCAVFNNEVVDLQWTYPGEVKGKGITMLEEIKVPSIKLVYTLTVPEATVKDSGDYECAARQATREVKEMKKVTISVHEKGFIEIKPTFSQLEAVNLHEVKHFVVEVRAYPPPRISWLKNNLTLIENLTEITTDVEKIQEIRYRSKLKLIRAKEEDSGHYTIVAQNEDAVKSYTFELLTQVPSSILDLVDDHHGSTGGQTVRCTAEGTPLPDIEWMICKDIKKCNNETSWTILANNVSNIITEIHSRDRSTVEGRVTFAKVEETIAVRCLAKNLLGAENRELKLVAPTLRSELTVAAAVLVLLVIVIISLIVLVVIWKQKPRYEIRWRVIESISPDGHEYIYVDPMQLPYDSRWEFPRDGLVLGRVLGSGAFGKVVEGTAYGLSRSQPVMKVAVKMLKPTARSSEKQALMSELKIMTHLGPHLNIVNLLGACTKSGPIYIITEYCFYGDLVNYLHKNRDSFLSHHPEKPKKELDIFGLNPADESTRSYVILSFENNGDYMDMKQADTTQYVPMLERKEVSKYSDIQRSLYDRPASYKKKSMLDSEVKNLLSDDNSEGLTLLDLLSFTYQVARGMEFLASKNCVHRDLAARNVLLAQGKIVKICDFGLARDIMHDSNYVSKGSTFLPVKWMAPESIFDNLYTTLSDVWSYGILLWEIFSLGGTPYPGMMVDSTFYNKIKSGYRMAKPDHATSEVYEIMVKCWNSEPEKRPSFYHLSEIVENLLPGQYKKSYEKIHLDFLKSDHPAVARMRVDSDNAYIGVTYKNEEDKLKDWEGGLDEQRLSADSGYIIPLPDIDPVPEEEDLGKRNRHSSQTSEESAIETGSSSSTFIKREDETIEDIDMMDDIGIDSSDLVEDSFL
Method: (§1) Inhibition activities of kinases of the inventive compounds (test compounds) prepared in the Examples were assessed and represented as IC50 values.
(§2) Kinases used in Test Examples 1 to 3 were purchased from Upstate Company.
(§3) 100 mM HEPES (pH 7.4), 25 mM MgCl2, 10 mM MnCl2 and 250 μM Na3VO4 were mixed to prepare a kinase buffer. Each of kinases to be measured was diluted to a concentration of 25˜300 ng per one reaction according to its activity with the kinase buffer. Also, each of the test compounds was serially diluted to a concentration starting from 100 nM up to 0.1 nM with the kinase buffer. 10 μl of the serially diluted solution of each of the test compounds and 10 μl of the diluted kinase were added to each well of a 96-well microplate, and the plate was incubated at room temperature for 10 mins. 10 μl of a substrate and 10 μl of ATP were successively added thereto to initiate a kinase reaction, and the resulting mixture was incubated at room temperature for 1 hour. The ATP was used in a form of a solution diluted to a concentration determined according to a kinase's Km value with distilled water. 10˜100 ng/mL poly(Glu, Tyr) 4:1 (Sigma) was used as the substrate. […] The FP (fluorescence polarization) value of each well was determined with a Victor™ D fluorescence meter (Perkin Elmer Lifesciences). […]

Fms = molecular target: T2, Fms (Homo sapiens, UniProt P07333); experiment: Inhibition of Fms kinase; details: Table 3
T2 construct: purchased Upstate Company
Method: as §1, §2, §3

Met = molecular target: T3, Met (Homo sapiens, UniProt P08581); experiment: Inhibition of Met kinase; details: Table 3
T3 construct: purchased Upstate Company
Method: as §1, §2, §3

Lyn = molecular target: T4, Lyn (Homo sapiens, UniProt P07948); experiment: Inhibition of Lyn kinase (Profluor kit procedure); details: Table 3
T4 construct: purchased Upstate Company
T4 sequence (P07948 whole entry, species assumed): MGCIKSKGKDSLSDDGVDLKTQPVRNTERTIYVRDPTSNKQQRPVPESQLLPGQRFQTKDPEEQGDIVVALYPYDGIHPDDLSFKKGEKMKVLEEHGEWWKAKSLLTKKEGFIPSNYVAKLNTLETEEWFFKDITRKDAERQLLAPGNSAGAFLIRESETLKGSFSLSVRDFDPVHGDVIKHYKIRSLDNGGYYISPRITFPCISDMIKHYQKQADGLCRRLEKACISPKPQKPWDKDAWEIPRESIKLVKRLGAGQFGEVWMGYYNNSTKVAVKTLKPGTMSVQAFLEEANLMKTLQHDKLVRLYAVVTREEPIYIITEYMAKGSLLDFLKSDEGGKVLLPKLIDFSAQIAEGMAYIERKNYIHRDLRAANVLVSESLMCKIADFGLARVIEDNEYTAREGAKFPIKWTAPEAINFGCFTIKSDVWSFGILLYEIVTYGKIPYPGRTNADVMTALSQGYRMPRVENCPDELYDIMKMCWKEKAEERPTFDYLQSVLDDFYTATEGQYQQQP
Method: as §1, §2
(§4) An inhibition activity of Src kinase was determined with an Src kinase assay kit (Profluor™, Promega). Each of kinases to be measured was diluted to a concentration of 25 ng per one reaction with the kinase buffer provided in the kit. Also, each of the test compounds was serially diluted to a concentration starting from 100 μM up to 0.1 nM with 10% DMSO. 5 μl of the serially diluted solution of each of the test compounds and 20 μl of the diluted kinase were added to each well of a 96-well microplate, and the plate was incubated at room temperature for 10 mins. 25 μl of ATP was added thereto, followed by incubating for 1 hour, and a protease solution was added thereto, followed by incubating for 1 hour. 25 μl of a stabilizer solution was added to the resulting solution, followed by incubating in dark for 5 mins. The absorbance of each well was determined with a fluorescence reader (Molecular Devices) (excitation wavelength: 485 nm, emission wavelength: 530 nm). […]

Kit = molecular target: T5, Kit (Homo sapiens, UniProt P10721); experiment: Inhibition of Kit kinase; details: Table 3
T5 construct: purchased Upstate Company
Method: as §1, §2, §3

PDGFRβ = molecular target: T6, PDGFRβ (Homo sapiens, UniProt P09619); experiment: Inhibition of PDGFRβ kinase; details: Table 3
T6 construct: purchased Upstate Company
Method: as §1, §2, §3

FGFR1 = molecular target: T7, FGFR1 (Homo sapiens, UniProt P11362); experiment: Inhibition of FGFR1 kinase (fluorescence polarization kinase assay)
T7 construct: purchased Upstate Company
T7 sequence (P11362 22-822, species assumed): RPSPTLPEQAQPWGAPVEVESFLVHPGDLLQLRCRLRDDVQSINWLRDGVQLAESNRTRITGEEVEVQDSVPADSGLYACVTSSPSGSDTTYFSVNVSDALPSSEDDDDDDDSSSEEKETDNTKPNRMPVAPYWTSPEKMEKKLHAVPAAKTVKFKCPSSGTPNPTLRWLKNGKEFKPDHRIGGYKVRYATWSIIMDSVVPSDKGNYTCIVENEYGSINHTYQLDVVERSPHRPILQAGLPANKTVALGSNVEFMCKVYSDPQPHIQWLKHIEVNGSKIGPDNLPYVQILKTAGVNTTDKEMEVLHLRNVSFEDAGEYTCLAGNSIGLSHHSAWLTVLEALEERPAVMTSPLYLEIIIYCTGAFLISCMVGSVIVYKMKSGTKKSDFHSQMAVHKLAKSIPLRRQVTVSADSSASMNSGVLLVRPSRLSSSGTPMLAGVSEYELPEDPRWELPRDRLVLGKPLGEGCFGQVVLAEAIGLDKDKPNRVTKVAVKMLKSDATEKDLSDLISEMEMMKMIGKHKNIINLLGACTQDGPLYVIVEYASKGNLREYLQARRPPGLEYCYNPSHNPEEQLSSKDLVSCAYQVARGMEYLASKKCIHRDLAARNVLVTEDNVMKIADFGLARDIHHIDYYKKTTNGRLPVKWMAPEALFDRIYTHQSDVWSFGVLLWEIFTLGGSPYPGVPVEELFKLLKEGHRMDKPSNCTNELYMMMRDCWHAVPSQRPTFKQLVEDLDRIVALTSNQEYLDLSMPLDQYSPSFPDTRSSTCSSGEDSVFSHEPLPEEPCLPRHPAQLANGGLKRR
Method: as §1, §2
(§5) 100 mM HEPES (pH 7.4), 25 mM MgCl2, 10 mM MnCl2 and 250 μM Na3VO4 were mixed to prepare a kinase buffer. Each of kinases to be measured was diluted to a concentration of 25˜300 ng per one reaction according to its activity with the kinase buffer. Also, each of the test compounds was serially diluted to a concentration starting from 100 nM up to 0.1 nM with the kinase buffer. 10 μl of the serially diluted solution of each of the test compounds and 10 μl of the diluted kinase were added to each well of a 96-well microplate, and the plate was incubated at room temperature for 10 mins. 10 μl of a substrate and 10 μl of ATP were successively added thereto to initiate a kinase reaction, and the resulting mixture was incubated at room temperature for 1 hour. The ATP was used in a form of a solution diluted to a concentration determined according to a kinase's Km value with distilled water. 10˜100 ng/mL poly(Glu, Tyr) 4:1 (Sigma) was used as the substrate. 10 μl of 6 mM EDTA was added to each well and stirred for 5 mins to terminate the kinase reaction. For a measurement of phosphorylation degree, 50 μl of a solution containing anti-phosphotyrosine antibody and fluorescein-labeled phosphopeptide was added to the reaction mixture, followed by incubating for 30 mins. The FP (fluorescence polarization) value of each well was determined with a Victor™ D fluorescence meter (Perkin Elmer Lifesciences).
(§6) IC50, the concentration at which 50% inhibition occurs, was evaluated based on the difference between the final concentration of the test cells and the initial concentration of the cells incubated in a well not-treated with the test compound which was regarded as 100%. IC50 values of the test compounds on the FGFR kinase were shown in Table 2, and those of the test compound obtained in Example 177 on various kinases, in Table 3.

EGFR = molecular target: T8, EGFR (Homo sapiens, UniProt P00533); experiment: Inhibition of EGFR (Her1) kinase; details: Table 3
T8 construct: purchased Upstate Company
Method: as §1, §2, §3

Lck = molecular target: T9, Lck (Homo sapiens, UniProt P06239); experiment: Inhibition of Lck kinase (Profluor kit procedure); details: Table 3
T9 construct: purchased Upstate Company
Method: as §1, §2, §4

Flt3 = molecular target: T10, Flt3 (Homo sapiens, UniProt P36888); experiment: Inhibition of Flt3 kinase; details: Table 3
T10 construct: purchased Upstate Company
T10 sequence (P36888 27-993): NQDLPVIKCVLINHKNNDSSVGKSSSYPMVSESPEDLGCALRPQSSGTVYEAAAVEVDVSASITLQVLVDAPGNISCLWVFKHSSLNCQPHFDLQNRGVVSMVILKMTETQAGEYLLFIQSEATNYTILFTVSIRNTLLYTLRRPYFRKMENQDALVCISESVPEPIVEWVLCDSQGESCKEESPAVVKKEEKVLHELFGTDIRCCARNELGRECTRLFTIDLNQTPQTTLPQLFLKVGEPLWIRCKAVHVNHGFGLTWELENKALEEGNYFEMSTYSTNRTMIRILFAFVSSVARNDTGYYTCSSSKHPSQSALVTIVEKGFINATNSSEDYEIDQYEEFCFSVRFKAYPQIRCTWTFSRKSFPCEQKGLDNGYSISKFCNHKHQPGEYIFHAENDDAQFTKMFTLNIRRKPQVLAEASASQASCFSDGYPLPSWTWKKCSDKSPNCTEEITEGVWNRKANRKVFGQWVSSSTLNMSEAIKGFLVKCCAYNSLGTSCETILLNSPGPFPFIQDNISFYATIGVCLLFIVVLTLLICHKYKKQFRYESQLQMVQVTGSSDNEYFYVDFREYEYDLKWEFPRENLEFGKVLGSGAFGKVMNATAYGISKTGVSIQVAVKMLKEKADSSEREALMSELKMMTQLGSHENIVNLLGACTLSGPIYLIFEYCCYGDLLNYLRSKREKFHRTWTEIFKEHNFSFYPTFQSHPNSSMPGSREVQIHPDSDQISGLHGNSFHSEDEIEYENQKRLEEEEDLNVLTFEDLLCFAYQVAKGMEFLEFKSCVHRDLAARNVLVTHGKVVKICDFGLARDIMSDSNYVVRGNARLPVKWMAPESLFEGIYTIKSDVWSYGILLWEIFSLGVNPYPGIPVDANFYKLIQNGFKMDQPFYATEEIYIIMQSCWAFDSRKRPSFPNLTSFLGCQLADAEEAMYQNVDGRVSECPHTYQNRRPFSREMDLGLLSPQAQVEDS
Method: as §1, §2, §3

Src = molecular target: T11, Src (Homo sapiens, UniProt P12931); experiment: Inhibition of Src kinase (Profluor Src kinase assay kit); details: Table 3
T11 construct: purchased Upstate Company
T11 sequence (P12931 whole entry, species assumed): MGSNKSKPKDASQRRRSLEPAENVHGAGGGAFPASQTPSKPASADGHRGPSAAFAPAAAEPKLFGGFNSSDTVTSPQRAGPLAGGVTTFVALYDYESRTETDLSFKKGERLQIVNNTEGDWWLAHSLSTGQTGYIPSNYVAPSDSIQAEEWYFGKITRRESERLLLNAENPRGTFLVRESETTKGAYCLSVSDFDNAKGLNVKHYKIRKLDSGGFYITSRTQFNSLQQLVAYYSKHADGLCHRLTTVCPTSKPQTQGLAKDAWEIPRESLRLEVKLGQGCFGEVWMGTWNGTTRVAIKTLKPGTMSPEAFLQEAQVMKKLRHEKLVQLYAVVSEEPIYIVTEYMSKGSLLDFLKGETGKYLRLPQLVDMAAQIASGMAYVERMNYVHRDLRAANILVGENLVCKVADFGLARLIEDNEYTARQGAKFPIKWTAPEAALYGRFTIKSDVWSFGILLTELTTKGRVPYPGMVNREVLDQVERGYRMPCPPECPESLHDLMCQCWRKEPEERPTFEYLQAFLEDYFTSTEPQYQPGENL
Method: as §1, §2, §4

Ret = molecular target: T12, Ret (Homo sapiens, UniProt P07949); experiment: Inhibition of Ret kinase; details: Table 3
T12 construct: purchased Upstate Company
Method: as §1, §2, §3

Flt1 = molecular target: T13, Flt1 (Homo sapiens, UniProt P17948); experiment: Inhibition of Flt1 kinase; details: Table 3
T13 construct: purchased Upstate Company
Method: as §1, §2, §3

KDR = molecular target: T14, KDR (Homo sapiens, UniProt P35968); experiment: Inhibition of KDR kinase; details: Table 3
T14 construct: purchased Upstate Company
Method: as §1, §2, §3

Tie2 = molecular target: T15, Tie2 (Homo sapiens, UniProt Q02763); experiment: Inhibition of Tie2 kinase; details: Table 3
T15 construct: purchased Upstate Company
Method: as §1, §2, §3

Fyn = molecular target: T16, Fyn (Homo sapiens, UniProt P06241); experiment: Inhibition of Fyn kinase (Profluor kit procedure); details: Table 3
T16 construct: purchased Upstate Company
Method: as §1, §2, §4

FGFR3 = molecular target: T17, FGFR3 (Homo sapiens, UniProt P22607); experiment: Inhibition of FGFR3 kinase (fluorescence polarization kinase assay)
T17 construct: purchased Upstate Company
T17 sequence (P22607 23-806, species assumed): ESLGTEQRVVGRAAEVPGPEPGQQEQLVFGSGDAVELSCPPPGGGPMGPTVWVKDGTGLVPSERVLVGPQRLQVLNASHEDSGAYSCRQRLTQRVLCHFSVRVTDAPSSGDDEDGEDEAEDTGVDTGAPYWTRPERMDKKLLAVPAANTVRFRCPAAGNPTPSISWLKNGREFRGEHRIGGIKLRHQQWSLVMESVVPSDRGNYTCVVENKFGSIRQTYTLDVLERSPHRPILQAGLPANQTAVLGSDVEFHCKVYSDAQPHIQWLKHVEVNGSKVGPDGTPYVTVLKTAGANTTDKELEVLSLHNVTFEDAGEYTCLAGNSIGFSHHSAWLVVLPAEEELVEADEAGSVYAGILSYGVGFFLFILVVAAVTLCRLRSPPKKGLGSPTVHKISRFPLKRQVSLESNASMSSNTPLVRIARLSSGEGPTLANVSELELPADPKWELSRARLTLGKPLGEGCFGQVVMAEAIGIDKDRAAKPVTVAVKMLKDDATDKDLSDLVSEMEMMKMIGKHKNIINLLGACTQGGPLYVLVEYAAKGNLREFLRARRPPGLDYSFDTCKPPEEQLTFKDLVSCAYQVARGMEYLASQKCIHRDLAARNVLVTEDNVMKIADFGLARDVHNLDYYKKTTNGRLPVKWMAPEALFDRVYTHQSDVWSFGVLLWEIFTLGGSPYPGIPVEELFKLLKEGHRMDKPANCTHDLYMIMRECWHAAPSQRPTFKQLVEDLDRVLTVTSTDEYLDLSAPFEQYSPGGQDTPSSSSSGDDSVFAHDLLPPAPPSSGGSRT
Method: as §1, §2, §5, §6

Her2 = molecular target: T18, Her2 (Homo sapiens, UniProt P04626); experiment: Inhibition of Her2 kinase; details: Table 3
T18 construct: purchased Upstate Company
T18 sequence (P04626 23-1255, species assumed): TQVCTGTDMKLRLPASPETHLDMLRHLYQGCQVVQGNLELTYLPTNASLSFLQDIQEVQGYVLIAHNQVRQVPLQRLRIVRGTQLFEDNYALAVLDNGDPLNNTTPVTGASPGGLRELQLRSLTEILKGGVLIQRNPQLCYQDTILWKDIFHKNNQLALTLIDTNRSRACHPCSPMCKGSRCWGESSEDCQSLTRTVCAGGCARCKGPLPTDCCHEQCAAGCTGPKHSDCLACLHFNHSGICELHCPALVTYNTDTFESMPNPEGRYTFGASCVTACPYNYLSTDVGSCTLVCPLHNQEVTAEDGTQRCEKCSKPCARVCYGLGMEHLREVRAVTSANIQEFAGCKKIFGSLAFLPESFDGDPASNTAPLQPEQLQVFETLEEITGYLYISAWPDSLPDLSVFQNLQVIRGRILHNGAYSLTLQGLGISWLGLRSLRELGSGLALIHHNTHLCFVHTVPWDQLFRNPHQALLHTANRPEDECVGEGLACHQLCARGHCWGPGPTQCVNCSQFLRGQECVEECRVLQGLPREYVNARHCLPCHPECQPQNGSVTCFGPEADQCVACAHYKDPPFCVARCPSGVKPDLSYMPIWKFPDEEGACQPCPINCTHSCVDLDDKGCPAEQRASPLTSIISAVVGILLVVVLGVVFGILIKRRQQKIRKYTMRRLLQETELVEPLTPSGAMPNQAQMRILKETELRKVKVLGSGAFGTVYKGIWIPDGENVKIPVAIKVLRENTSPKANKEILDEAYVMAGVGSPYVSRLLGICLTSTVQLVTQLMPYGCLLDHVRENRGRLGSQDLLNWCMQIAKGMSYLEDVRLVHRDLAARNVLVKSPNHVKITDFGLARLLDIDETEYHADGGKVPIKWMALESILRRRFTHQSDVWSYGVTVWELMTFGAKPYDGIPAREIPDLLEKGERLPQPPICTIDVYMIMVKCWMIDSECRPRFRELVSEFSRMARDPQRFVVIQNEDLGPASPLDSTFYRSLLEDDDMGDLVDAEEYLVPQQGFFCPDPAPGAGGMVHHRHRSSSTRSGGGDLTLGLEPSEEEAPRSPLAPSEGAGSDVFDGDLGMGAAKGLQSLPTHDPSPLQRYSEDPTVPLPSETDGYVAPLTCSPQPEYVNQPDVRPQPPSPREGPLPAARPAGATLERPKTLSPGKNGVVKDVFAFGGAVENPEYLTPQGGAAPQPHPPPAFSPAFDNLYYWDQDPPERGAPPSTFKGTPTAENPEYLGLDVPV
Method: as §1, §2, §3

[1] = Table 2, class symbols, read-out: FGFR1 IC50
[2] = Table 2, class symbols, read-out: FGFR3 IC50

Structure (SMILES): COc1cc(OC)c(Cl)c(NC(=O)c2csc3c(NC(=O)C4CC4)ncnc23)c1Cl [Example 177, 4-(cyclopropanecarbox-amido)-N-(2,6-dichloro-3,5-dimethoxyphenyl) thieno[3,2-d]pyrimidine-7-carboxamide]
- IC50 (PDGFRα): > 1000 nM
- IC50 (Fms): < 200 nM
- IC50 (Met): > 1000 nM
- IC50 (Lyn): > 1000 nM
- IC50 (Kit): > 1000 nM
- IC50 (PDGFRβ): > 1000 nM
- IC50 (FGFR1; Table 3, read-out: IC50 (nM) FGFR1): < 100 nM
- IC50 (EGFR): > 1000 nM
- IC50 (Lck): > 1000 nM
- IC50 (Flt3): > 1000 nM
- IC50 (Src): > 1000 nM
- IC50 (Ret): > 1000 nM
- IC50 (Flt1): > 1000 nM
- IC50 (KDR): < 200 nM
- IC50 (Tie2): > 1000 nM
- IC50 (Fyn): > 1000 nM
- IC50 (FGFR3; Table 3, read-out: IC50 (nM) FGFR3): < 100 nM
- IC50 (Her2): > 1000 nM

Structure (SMILES): CCN(CC)CCOc1ccc(Nc2ncnc3c(C(=O)Nc4c(Cl)c(OC)cc(OC)c4Cl)csc23)cc1 [Example 196, N-(2,6-dichloro-3,5-dimethoxyphenyl)-4-(4-(2-(diethylamino)ethoxy)phenylamino) thieno[3,2-d]pyrimidine-7-carboxamide]
- IC50 (FGFR1; [1]): 100 to 500 nM
- IC50 (FGFR3; [2]): 500 to 1000 nM

Structure (SMILES): COc1cc(OC)c(Cl)c(NC(=O)c2csc3c(Nc4ccc(NC(=O)CN(C)C)cn4)ncnc23)c1Cl [Example 299, N-(2,6-dichloro-3,5-dimethoxyphenyl)-4-(5-(2-(dimethylamino)acetamido)pyridin-2-ylamino)thieno[3,2-d]pyrimidine-7-carboxamide]
- IC50 (FGFR1; [1]): 1 to 100 nM
- IC50 (FGFR3; [2]): 1 to 100 nM

Structure (SMILES): COc1cc(OC)c(Cl)c(NC(=O)c2csc3c(NCCNc4ccccc4)ncnc23)c1Cl [Example 304, N-(2,6-dichloro-3,5-dimethoxyphenyl)-4-(2-(phenylamino)ethyl-amino)thieno[3,2-d]pyrimidine-7-carboxamide]
- IC50 (FGFR1; [1]): 1000 to 5000 nM
- IC50 (FGFR3; [2]): 1000 to 5000 nM

Next, values leading:

- IC50 (FGFR1; [1]): 100 to 500 nM
- IC50 (FGFR3; [2]): 500 to 1000 nM
Structure (SMILES): CCOC(=O)NC(=S)Nc1ncnc2c(C(=O)Nc3c(Cl)c(OC)cc(OC)c3Cl)csc12 [Example 216, N-(2,6-dichloro-3,5-dimethoxyphenyl)-4-(3-(ethoxycarbonyl)thioureido)thieno[3,2-d]pyrimidine-7-carboxamide]

- IC50 (FGFR1; [1]): 1 to 100 nM
- IC50 (FGFR3; [2]): 100 to 500 nM
Structure (SMILES): COc1cc(O)c(Cl)c(NC(=O)c2csc3c(N)ncnc23)c1Cl [Example 217, 4-Amino-N-(2,6-dichloro-3-hydroxy-5-methoxyphenyl)thieno[3,2-d]pyrimidine-7-carboxamide]

- IC50 (FGFR1; [1]): 500 to 1000 nM
- IC50 (FGFR3; [2]): 500 to 1000 nM
Structure (SMILES): COc1cc(OC)c(Cl)c(NC(=O)c2csc3c(Nc4nc5ccc(C)cc5s4)ncnc23)c1Cl [Example 225, N-(2,6-dichloro-3,5-dimethoxyphenyl)-4-(6-methylbenzo[d]thiazol-2-ylamino)thieno[3,2-d]pyrimidine-7-carboxamide]

- IC50 (FGFR1; [1]): 100 to 500 nM
- IC50 (FGFR3; [2]): 1 to 100 nM
Structure (SMILES): COc1cc(OC)c(Cl)c(NC(=O)c2csc3c(Nc4ccc(N5CCC(N6CCCC6)CC5)cc4)ncnc23)c1Cl [Example 202, N-(2,6-dichloro-3,5-dimethoxyphenyl)-4-(4-(4-(pyrrolidin-1-yl)piperidin-1-yl)phenylamino) thieno[3,2-d]pyrimidine-7-carboxamide]
